Test results: ChEMBL document CHEMBL1153206, “Evaluation of pyrrolin-2-one derivatives synthesized by a new practical method as inhibitors of plasminogen activator inhibitor-1 (PAI-1)” (Bioorg Med Chem Lett, 2010)

molecular target: T1, Plasminogen activator inhibitor 1 (Homo sapiens, UniProt P05121); test: Inhibition of human PAI1 at 15 uM
T1 sequence (P05121 whole entry): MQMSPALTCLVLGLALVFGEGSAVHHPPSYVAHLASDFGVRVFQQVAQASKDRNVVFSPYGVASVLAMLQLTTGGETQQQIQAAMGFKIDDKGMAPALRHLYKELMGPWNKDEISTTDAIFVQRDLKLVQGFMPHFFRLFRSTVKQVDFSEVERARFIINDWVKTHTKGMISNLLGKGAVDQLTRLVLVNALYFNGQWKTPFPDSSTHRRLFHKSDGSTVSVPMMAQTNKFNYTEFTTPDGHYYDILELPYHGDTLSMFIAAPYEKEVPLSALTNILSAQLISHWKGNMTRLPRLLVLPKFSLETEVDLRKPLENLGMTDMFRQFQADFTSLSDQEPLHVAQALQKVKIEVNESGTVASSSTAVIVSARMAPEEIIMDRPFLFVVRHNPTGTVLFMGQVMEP

inhibition | SMILES
34% | O=C1N/C(=C\c2ccc(C(=O)O)o2)C(c2ccco2)=C1c1ccccc1

molecular target: T1, Plasminogen activator inhibitor 1; test: Inhibition of human PAI1

IC50 | SMILES
9.6 µM | O=C(O)COc1cccc(/C=C2\NC(=O)C(c3ccccc3)=C2c2ccccc2)c1
1.2 µM | N#C/C=C/c1ccc(/C=C2\NC(=O)C(c3ccccc3)=C2c2ccco2)o1
0.65 µM | COc1ccccc1C1=C(c2ccccc2)C(=O)N/C1=C\c1ccc(/C=C/C(=O)O)o1
1.1 µM | COc1ccc(C2=C(c3ccco3)/C(=C/c3ccc(/C=C/C(=O)O)o3)NC2=O)cc1OC
0.69 µM | COc1ccc(C2=C(c3cccs3)/C(=C/c3ccc(/C=C/C(=O)O)o3)NC2=O)cc1OC
7.8 µM | COc1ccc(C2=C(c3ccco3)/C(=C/c3ccncc3)NC2=O)cc1OC
1.5 µM | O=C(O)/C=C/c1ccc(/C=C2\NC(=O)C(c3ccccc3)=C2c2ccco2)o1
0.94 µM | COc1ccccc1C1=C(c2ccccc2)C(=O)N/C1=C\c1ccc(C)o1

molecular target: T1, Plasminogen activator inhibitor 1; test: Inhibition of human PAI1 at 10 uM

inhibition | SMILES
36% | O=C1N/C(=C\c2ccco2)C(c2ccco2)=C1c1ccccc1
